Assay results: USRE48097E1, “Cephem compounds, their production and use” (priority 2015, dated 2020)
In brackets after ≈: the same amount, converted by molar mass. Like-named read-outs stand apart in the source and are kept apart here.

Key:
Format in all cases: cell-based
C. freundii 579 = experiment: MIC against C. freundii 579; conditions: Citrobacter freundii; Table 2; C. freundii 579, Caz R, IMP S; alone; read-out: MIC
Description: (§1) Without limitation, the present cephem compounds alone, or in combination with one or more β-lactamase inhibitors, may provide improved antibacterial efficacy, particularly in antibiotic-resistant bacterial strains. It is believed that the present compounds may be structurally different from known compounds and, as a result, may be more basic in nature. It is an advantage that the present compounds may extend the spectrum of effective bacterial compounds, particularly against previously-resistant bacteria (e.g. ESKAPE organisms), and/or gram negative bacteria, without significant side effects. In a preferred embodiment, the present cephem compound may comprise reference compound ceftazidime, which may be used alone, or in combination with one or more β-lactamase inhibitors, such as NXL-104. As shown, the foregoing composition was tested for minimum inhibitory concentration (MIC, μg/mL) against bacteria listed in Tables 2-3.

K. pneumoniae 2689 = experiment: MIC against K. pneumoniae 2689; conditions: K. pneumoniae 2689, KPC-2, alone, read-out: MIC
Procedure: (§2) As shown, the foregoing composition was tested for minimum inhibitory concentration (MIC, μg/mL) against bacteria listed in Tables 2-3.

S. pneumoniae 2406 = experiment: MIC against S. pneumoniae 2406; conditions: Streptococcus pneumoniae; Table 2; S. pneumoniae 2406, Pen S; alone; read-out: MIC
Description: as §1

S. aureus 3144 = experiment: MIC against S. aureus 3144; conditions: Staphylococcus aureus; Table 2; S. aureus 3144, MSSA; alone; read-out: MIC
Description: as §1

S. pneumoniae 2392 = experiment: MIC against S. pneumoniae 2392; conditions: Streptococcus pneumoniae; Table 2; S. pneumoniae 2392, Pen R; alone; read-out: MIC
Description: as §1

E. cloacae 2044 = experiment: MIC against E. cloacae 2044; conditions: Enterobacter cloacae; Table 2; E. cloacae 2044, Caz S, IMP S; alone; read-out: MIC
Description: as §1

E. cloacae 2689 = experiment: MIC against E. cloacae 2689; conditions: Enterobacter cloacae; Table 3; E. cloacae 2689, KPC-2; alone; read-out: MIC
Procedure: as §2

E. coli 4102 = experiment: MIC against E. coli 4102; conditions: Escherichia coli; Table 2; E. coli 4102, CTX-M-14; alone; read-out: MIC
Description: as §1

K. pneumoniae 4107 = experiment: MIC against K. pneumoniae 4107; conditions: K. pneumoniae 4107, KPC-2, TEM-1, SHV-11, alone, read-out: MIC
Procedure: as §2

[1] = system: S. pneumoniae ATCC 700673; experiment: MIC against S. pneumoniae ATCC 700673; conditions: Streptococcus pneumoniae, ATCC700673; Table 2; S. pneumoniae ATCC 700673, Pen R; alone; read-out: MIC
Description: as §1

K. baumanii 4094 = experiment: MIC against K. baumanii 4094; conditions: Table 2; K. baumanii 4094, OXA-51; alone; read-out: MIC
Description: as §1

E. cloacae 2709 = experiment: MIC against E. cloacae 2709; conditions: Enterobacter cloacae; Table 3; E. cloacae 2709, KPC-3, VIM-1; alone; read-out: MIC
Procedure: as §2

E. coli 4080 = experiment: MIC against E. coli 4080; conditions: Escherichia coli; Table 2; E. coli 4080, TEM-10; alone; read-out: MIC
Description: as §1

S. pneumoniae 2405 = experiment: MIC against S. pneumoniae 2405; conditions: Streptococcus pneumoniae; Table 2; S. pneumoniae 2405, Pen S; alone; read-out: MIC
Description: as §1

P. aeruginosa 2686 = experiment: MIC against P. aeruginosa 2686; conditions: Pseudomonas aeruginosa; Table 3; P. aeruginosa 2686, KPC-2; alone; read-out: MIC
Procedure: as §2

E. coli 4101 = experiment: MIC against E. coli 4101; conditions: Escherichia coli; Table 2; E. coli 4101, CTX-M-14, TEM-1; alone; read-out: MIC
Description: as §1

K. pneumoniae 4104 = experiment: MIC against K. pneumoniae 4104; conditions: K. pneumoniae 4104, KPC-3, TEM-1, alone, read-out: MIC
Procedure: as §2

K. baumanii 4091 = experiment: MIC against K. baumanii 4091; conditions: Table 2; K. baumanii 4091, OXA-23; alone; read-out: MIC
Description: as §1

E. coli 102 = experiment: MIC against E. coli 102; conditions: Escherichia coli; Table 2; E. coli 102, TEM-1; alone; read-out: MIC
Description: as §1

K. pneumoniae 2713 = experiment: MIC against K. pneumoniae 2713; conditions: Klebsiella pneumoniae; Table 3; K. pneumoniae 2713, KPC-3, VIM-1; alone; read-out: MIC
Procedure: as §2

S. pneumoniae 2404 = experiment: MIC against S. pneumoniae 2404; conditions: Streptococcus pneumoniae; Table 2; S. pneumoniae 2404, Pen S; alone; read-out: MIC
Description: as §1

K. pneumoniae 2697 = experiment: MIC against K. pneumoniae 2697; conditions: Klebsiella pneumoniae; Table 2; K. pneumoniae 2697, IMP-4; alone; read-out: MIC
Description: as §1

E. coli 4103 = experiment: MIC against E. coli 4103; conditions: Escherichia coli; Table 3; E. coli 4103, KPC-2, TEM-1, CMY-type; alone; read-out: MIC
Procedure: as §2

Structure (SMILES): CC(C)(O/N=C(\C(=O)N[C@@H]1C(=O)N2C(C(=O)[O-])=C(C[n+]3ccc4c(ccn4Cc4ccc(C(=N)N)cc4)c3)CS[C@H]12)c1csc(N)n1)C(=O)O [Ex-1, (6R,7R)-7-{[(2Z)-2-(2-Amino-1,3-thiazol-4-yl)-2-{[(2-carboxypropan-2-yl)oxy]imino}acetyl]-amino}-3-{[1-(4-carbamimidoylbenzyl)-1H-pyrrolo[3,2-c]pyridin-5-ium-5-yl]methyl}-8-oxo-5-thia-1-azabicyclo[4.2.0]oct-2-ene-2-carboxylate]
- MIC (C. freundii 579): 4 µg/mL
- MIC (K. pneumoniae 2689; Klebsiella pneumoniae, 2689, Table 2): 8 µg/mL (≈ 11.1 µM)
- MIC (K. pneumoniae 2689; Klebsiella pneumoniae, 2689, Table 3): 16 µg/mL (≈ 22.3 µM)
- MIC (S. pneumoniae 2406): ≤ 0.06 µg/mL
- MIC (S. aureus 3144): 4 µg/mL
- MIC (S. pneumoniae 2392): 2 µg/mL
- MIC (E. cloacae 2044): 0.25 µg/mL
- MIC (E. cloacae 2689): 32 µg/mL (≈ 44.6 µM)
- MIC (E. coli 4102): 1 µg/mL
- MIC (K. pneumoniae 4107; Klebsiella pneumoniae, 4107, Table 2): 16 µg/mL (≈ 22.3 µM)
- MIC (K. pneumoniae 4107; Klebsiella pneumoniae, 4107, Table 3): 32 µg/mL (≈ 44.6 µM)
- MIC [1]: 2 µg/mL
- MIC (K. baumanii 4094): 16 µg/mL
- MIC (E. cloacae 2709): 32 µg/mL (≈ 44.6 µM)
- MIC (E. coli 4080): 4 µg/mL
- MIC (S. pneumoniae 2405): ≤ 0.06 µg/mL
- MIC (P. aeruginosa 2686): > 32 µg/mL
- MIC (E. coli 4101): 0.5 µg/mL
- MIC (K. pneumoniae 4104; Klebsiella pneumoniae, 4104, Table 2): 16 µg/mL (≈ 22.3 µM)
- MIC (K. pneumoniae 4104; Klebsiella pneumoniae, 4104, Table 3): 32 µg/mL (≈ 44.6 µM)
- MIC (K. baumanii 4091): 16 µg/mL
- MIC (E. coli 102): ≤ 0.06 µg/mL
- MIC (K. pneumoniae 2713): > 32 µg/mL
- MIC (S. pneumoniae 2404): 0.25 µg/mL
- MIC (K. pneumoniae 2697): 4 µg/mL
- MIC (E. coli 4103): > 32 µg/mL
